Assay results taken from US12715851B2, “4′-substituted analogues of fisetin and their use in the treatment of cancer” (Stellenbosch University, priority 2020, dated 2026).
pIC50: −log10 of the molar value. Entries after “also recorded” stand apart in the source; their conditions may differ.

Columns and labels:
[1] = Acute toxicity, fed orally for two weeks; type: in vivo; details: Fisetin 50 mg/kg, 3c 25 and 50 mg/kg body weight
Experimental: Fisetin analogue 3c was used to assess the potential toxicity of these analogues in a pre-clinical model. To test the acute toxicity, Fisetin (50 mg/kg body weight), analogue 3c (25 mg/kg and 50 mg/kg body weight), and vehicle control (5% DMSO, 45% PEG-300 and 50% saline) was fed orally for two weeks. Abnormal clinical signs such as decreased motor activity, sensory reflection, body weight, food intake, and water intake were monitored during the treatment period. An increase in body weight was observed among all groups throughout the treatment period (FIG. 7A). […] This variation could be due to consistent frequency of dosage.

[2] = test system: H1299 human lung cancer cells; assay: Cell cycle distribution, propidium iodide flow cytometry; type: cell-based; details: H1299, 48 h
Experimental: (§1) To examine the effect of Fisetin analogues on cell cycle regulation, cells were treated with different concentrations of Fisetin analogues (5, 10 & 20 μM) for 48 h, then stained with propidium iodide and subjected to flow cytometry. All three of the tested Fisetin analogues induced G2/M phase cell cycle arrest in A549 (FIGS. 5A-5C) and H1299 human lung cancer cells (FIGS. 5D-5F).

[3] = test system: A549 cells; assay: Trypan blue cell exclusion assay, cell proliferation and death; type: cell-based; details: Homo sapiens, A549, 48 h, read-out: IC50 concentration
Experimental: (§2) To evaluate the effect of Fisetin analogues 3a, 3c and 3e on cell proliferation and death of human lung cancer cells, trypan blue cell exclusion assays were performed. A549 and H1299 cancer cells were treated with different concentrations of three selected Fisetin analogues for 48 h. The Fisetin analogues decreased the viability of cells and caused cell death in both the cell lines in a concentration dependent fashion. A549 and H1299 cells were treated with 5, 10 and 20 μM of Fisetin analogues for 48 h. All three analogues decreased cell proliferation and induced cell death.

[4] = test system: H1299 lung cancer cells; assay: as above; type: cell-based; details: Homo sapiens, NCI-H1299, H1299, 48 h, read-out: IC50 concentration
Experimental: as §2

[5] = test system: A549 lung cancer cell line; assay: MTT cell proliferation assay, cytotoxicity after 48 h treatment; type: cell-based, human
Experimental: These 4′-substituted Fisetin analogues were initially screened for cytotoxicity against the A549 lung cancer cell line following a 48 h treatment period. Cytotoxicity IC50's were quantified using the MTT cell proliferation assay. The compounds were not found to interfere with the assay by causing an increase in background absorbance, no correlation was found between the lipophilicity and cytotoxicity at this position, and the substituent size was also not found to be important.

[6] = test system: A549 cells; assay: Western blot of signalling, cell cycle and apoptosis markers; type: cell-based, human; details: IC50 concentration and 20 μM
Description: (§3) Similarly, in H1299 cells analogue 3a induced a 11.7 to 14.9% cell death (FIG. 4D right) compared to 3.8% in control cells. Analogue 3c (FIG. 4E right) and analogue 3e (FIG. 4F right) induced cell death of 8.2 to 15.1% and 8.8 to 16.6% respectively. For western blot experiments, two concentrations were used, i.e. the IC50 concentration and the next higher concentration utilized for cell proliferation for each cell line.
The expression of pro-oncogenic signalling molecules, which are involved in proliferation and survival of cancer cells, were evaluated.
The effect of the Fisetin analogues on molecular markers of apoptosis was assessed.

[7] = test system: SOD; assay: Hepatotoxicity: specific activity of SOD; type: in vivo, swiss albino mice; details: liver of treated mice
Experimental: (§4) Hepatotoxicity is considered to be one of the major challenges for drug development schemes. The liver is the primary organ for the metabolism or biotransformation of a given drug. To assess the hepatotoxicity of these compounds, the effects of Fisetin and analogue 3c on various hepatic enzymes was assessed.
(§5) A lipid peroxidation assay was performed on microsomal liver fraction and determined in terms of TBARS formation. […] The modulatory effects of Fisetin and analogue 3c were determined on the specific activities of cytochrome b5 reductase (Cytb5R) and cytochrome P450 reductase (CytP450R), phase I enzyme of xenobiotic metabolism. Fisetin and analogue 3c caused reduction in the specific activity of cytochrome b5 reductase. Fisetin decreased Cytb5R specific activity by 66% whereas analogue 3c (50 mg/kg) caused a 36% reduction in specific activity (FIG. 7F). An increase in specific activity of CytP450R by Fisetin and analogue 3c was observed. Fisetin and analogue 3c (50 mg/kg) increased the specific activity by 15% and 13%, respectively (FIG. 7G). Next, the specific activities of phase II enzymes, glutathione S-transferase (GST) and reduced glutathione (GSH) were measured. […] Fisetin and analogue 3c (50 mg/kg) caused a decrease in specific activity of GSH by 34% and 7%, respectively (FIG. 7I). […] These analogues are therefore likely to be effective and safe phytochemicals.

[8] = test system: lipid peroxidation (MDA formation); assay: Hepatotoxicity: lipid peroxidation assay on microsomal liver fraction (TBARS); type: in vivo, swiss albino mice; details: microsomal liver fraction of treated mice
Experimental: as §4, §5

[9] = test system: A549; assay: Cell cycle distribution, propidium iodide flow cytometry; type: cell-based, human; details: 48 h
Experimental: as §1

[10] = test system: cytochrome b5 reductase (Cytb5R); assay: Hepatotoxicity: specific activity of cytochrome b5 reductase; type: in vivo, swiss albino mice; details: 50 mg/kg orally, two weeks
Experimental: as §4, §5

[11] = test system: cytochrome P450 reductase (CytP450R); assay: Hepatotoxicity: specific activity of cytochrome P450 reductase; type: in vivo, swiss albino mice; details: 50 mg/kg orally, two weeks
Experimental: as §4, §5

[12] = test system: H1299 cells; assay: Western blot of signalling, cell cycle and apoptosis markers; type: cell-based, human
Description: as §3
In H1299 cells (FIG. 4H), the higher concentrations of all three Fisetin analogues decreased the expression of pErk1/2. […]
The decreased expression of these proteins explains the decreased cell proliferation in both A549 and H1299 cells. […] Consistent with A549 data, all three the Fisetin analogues decreased the expression of anti-apoptotic protein Bcl-2 at both the concentrations. In H1299 cells, all the analogues increased cleaved Caspase-3 compared to control untreated cells. Thus, modulation of apoptosis regulatory proteins has caused apoptosis in both A549 and H1299 cells by the tested Fisetin analogues.

Compound: O=c1c(O)c(-c2ccc(Br)cc2)oc2cc(O)ccc12 [analogue 3c, 4′-Bromo-3,7-dihydroxyflavone]
- toxicity in mice, in words [1]: well tolerated in animal models; also recorded: does not show toxicity; also recorded: did not cause toxicity
- G2/M phase arrest ([2]; 5 μM): induced cell cycle arrest
- G2/M phase arrest ([2]; 10 & 20 μM): induced G2/M phase arrest in both the cell lines significantly
- pIC50 [3]: 4.92
- pIC50 [4]: 5.27
- cytotoxicity, in words ([5]; A549, MTT, 48 h): particularly active
- activity against lung cancer cell lines compared with the parent Fisetin ([5]; A549 and/or H1299): substantially more active
- cleaved caspase-3 [6]: IC50 concentration of analogue 3c also increased cleaved caspase-3 to a significant amount; also recorded: higher concentration of analogue 3c and both the concentrations of analogue 3e increased the cleaved caspase-3 marginally
- expression of p21 [6]: increased the p21 expression significantly at higher concentration
- expression of phospho Cdc-2 [6]: IC50 concentration decreased the expression to some extent; also recorded: the higher concentrations decreased the phospho-Cdc-2 expression significantly
- expression of phospho-EGFR [6]: minimally affected except for higher concentration of analogue 3c
- expression of phospho-Erk1/2 [6]: decreased the expression of phospho-Erk1/2 significantly at both the concentrations
- expression of pro-apoptotic protein Bax [6]: increased the expression of Bax with much higher potential
- total Stat-3 expression [6]: not affected
- total form of Akt [6]: slightly downregulated
- total form of Erk1/2 [6]: not affected except for 3c in the higher concentration
- specific activity of SOD [7]: moderately induced
- MDA formation (TBARS) [8]: No significant change
- G2/M phase arrest ([9]; 5 μM): induced cell cycle arrest
- G2/M phase arrest ([9]; 10 & 20 μM): induced G2/M phase arrest in both the cell lines significantly
- reduction in specific activity of cytochrome b5 reductase [10]: 36%
- increase in specific activity of CytP450R [11]: 13%
- Phospho-Cdc-2 expression ([12]; IC50 concentration and 10 μM): higher concentration of analogue 3c and both concentrations of analogue 3e decreased the expression of phospho-Cdc-2
- Total Cdc-2 ([12]; IC50 concentration and 10 μM): marginally affected by higher concentration
- expression of Bax ([12]; IC50 concentration and 10 μM): increased the expression of pro-apoptotic protein Bax
- expression of Cyclin B1 ([12]; IC50 concentration and 10 μM): decreased in all treatments, except for the lower concentration of analogue 3c
- expression of phospho Akt ([12]; IC50 concentration and 10 μM): completely undetected
- expression of phospho-EGFR ([12]; IC50 concentration and 10 μM): decreased the expression of both phospho and total EGFR
- expression of total Akt ([12]; IC50 concentration and 10 μM): completely undetected
- expression of total EGFR ([12]; IC50 concentration and 10 μM): decreased the expression of both phospho and total EGFR
- expression of total Erk1/2 ([12]; IC50 concentration and 10 μM): decreased the expression of total Erk1/2 significantly
- expression of total Stat-3 ([12]; higher concentration (10 μM)): decreased the expression of total Stat-3 at higher concentrations
